# Entries after “also recorded” stand apart in the source; their conditions may differ. Where no end group is shown, it is not given here. The star is where a group is joined. Biotin = O=C1N[C@H]2[C@H](CS[C@H]2CCCCC(=O)*)N1
# How the values were obtained:
# [1] = tested on: human immature monocyte-derived dendritic cells (DCs); experiment: Cytokine/chemokine secretion by human immature monocyte-derived dendritic cells (ELISA); type: cell-based; design: key to TNFα secretion / IL-18 secretion / IL-8 secretion / IL-10 secretion / IL-6 secretion / IL-12 secretion: “+” indicates an increase; “−” indicates no change relative to untreated cells (medium); conditions: for IL-6 secretion / IL-8 secretion / IL-10 secretion / IL-12 secretion / IL-18 secretion / TNFα secretion: HUMAN DC, ELISA 48 h after exposure, relative to untreated cells; for secretion of IL-6 by DCs: FIGS. 1A, 1B
# Protocol: Peripheral blood mononuclear cells (PBMCs) were isolated from the blood of normal volunteers (Long Island Blood Services, Melville, N.Y.) over a Ficoll-Hypaque (Amersham Biosciences, Uppsala, Sweden) density gradient. CD14^+ monocytes were isolated from PBMCs by positive selection using anti-CD14 beads (Miltenyi Biotech., Auburn, Calif.), following the manufacturer's instructions. To generate DCs, CD14^+ cells were cultured in RPMI 1640 medium supplemented with 2 mM L-glutamine (GIBCO-BRL Life Technologies, Grand Island, N.Y.), 50 μM 2-mercaptoethanol (Sigma, St. Louis, Mo.), 10 mM HEPES (GIBCO-BRL), penicillin (100 U/ml), streptomycin (100 μg/ml) (GIBCO-BRL), and 5% human AB serum (Gemini Bio-Products, Woodland, Calif.). Cultures were maintained for 7 days in 6-well trays (3×10^6 cells/well) supplemented with 1000 U GM-CSF per ml (Immunex, Seattle, Wash.) and 200 U IL-4 per ml (R&D Systems, Minneapolis, Minn.) at days 0, 2, 4 and 6.
# (§1) Recombinant HMGB1-B box domain (HMGB1-Bx) was expressed in Escherichia coli and purified as described by Li, et al. (Mol. Med. 9:37-45; J. Immunol. Methods 289:211-223 (2004)). Purified HMGB1-Bx contained trace amounts of LPS (19 pg LPS/μg HMGB1-Bx) as measured by the chromogenic Limulus amebocyte lysate assay (BioWhittacker Inc, Walkersville, Md.). All experiments using HMGB1-Bx, as well as the HMGB1 peptides, were performed in the presence of polymyxin B (200 U/ml) to neutralize the amount of contaminating LPS in the HMGB1-Bx and peptide preparations. We have previously shown that the DC stimulatory capacity of HMGB1-Bx requires an intact tertiary structure and is not due to contaminating amounts of LPS, as trypsinization abolished HMGB1-Bx activity (Messmer, et al., J. Immunol. 173: 307-313 (2004); the entire teachings of which are incorporated herein by reference).
# (§2) Secreted cytokine/chemokine levels were measured by ELISA (Pierce Boston Technology Center, SearchLight™ Proteome Arrays Multiplex Sample Testing Services, Woburn, Mass.) 48 h after addition of the various peptides. Polymyxin B (200 U/ml) was added to all cultures, except those containing LPS, before the stimuli were added. Immature monocyte-derived human dendritic cells (DCs) and immature bone-marrow derived murine dendritic cells (BM-DCs) were cultured either in the presence of HMGB1 peptides (200 μg/ml), whose sequences map to different regions of the HMGB1 protein (see Table 1), the entire HMGB1 B-box domain (HMGB1-Bx) (50 μg/ml), or LPS (100 ng/ml). Untreated cells (medium) were tested as a control. Each peptide was named according to the corresponding position of its first amino acid within the full-length HMGB1 sequence. All peptides were N-terminally biotinylated except “Hp-106 (non bio)”.
# [2] = tested on: murine bone marrow-derived dendritic cells (BM-DCs); experiment: Cytokine/chemokine secretion by murine bone marrow-derived dendritic cells (ELISA); type: cell-based, mouse; design: key to TNFα secretion / IL-18 secretion / IL-8 secretion / IL-10 secretion / IL-2 secretion / IL-1β secretion / IL-5 secretion / IL-6 secretion / IL-12 secretion: “+” indicates an increase; “−” indicates no change relative to untreated cells (medium); conditions: for IL-1β secretion / IL-2 secretion / IL-5 secretion / IL-6 secretion / IL-8 secretion / IL-10 secretion / IL-12 secretion / IL-18 secretion / TNFα secretion: MURINE DC, ELISA 48 h after exposure, relative to untreated cells; for IL-1β secretion / IL-2 secretion / IL-5 secretion / IL-6 secretion / IL-8 secretion / IL-10 secretion / IL-12 secretion / IL-18 secretion / TNFα secretion / secretion of IL-1β / secretion of IL-2 / secretion of IL-8 / secretion of IL-5 / secretion of IL-18 / secretion of TNF-α / secretion of IL-12 (p70): peptides 200 μg/ml, HMGB1-Bx 50 μg/ml; for cytokine secretion by murine BM-DCs / secretion of IL-1β / secretion of IL-2 / secretion of IL-8 / secretion of IL-5 / secretion of IL-18 / secretion of TNF-α / secretion of IL-12 (p70): murine BM-DCs; for secretion of IL-1β: FIG. 2A; for secretion of IL-1β / secretion of IL-2 / secretion of IL-8 / secretion of IL-5 / secretion of IL-18 / secretion of TNF-α / secretion of IL-12 (p70): 48 h; for secretion of IL-2: FIG. 2C; for secretion of IL-8: FIG. 2D; for secretion of IL-5: FIG. 2E; for secretion of IL-18: FIG. 2F; for secretion of TNF-α: FIG. 2G; for secretion of IL-12 (p70): FIGS. 2B, 2H
# Protocol: Bone marrow-derived DCs (BM-DCs) were generated using modifications of the original method described by Inaba, et al. (J. Exp. Med. 1 76:1693-1702 (1992)). In brief, bone marrow suspensions were incubated with red cell lysis buffer (PUREGENE™ RBC Lysis Solution, Gentra Systems, Minneapolis, Minn.) to remove red blood cells. After washing in media, lymphocytes and Ia-positive cells were killed with a cocktail of monoclonal antibodies (mAbs) and rabbit complement for 60 min at 37° C. The mAbs that were used were GK1.5 anti-CD4, TIB211 anti-CD8, TIB 120 anti-Ia, and TIB 146 anti B220 (these mAbs were kindly provided by Dr. Ralph Steinman). The cells were subsequently cultured in media containing 5% FCS and 10 ng/ml recombinant mouse GM-CSF (R&D Systems, Minneapolis, Minn.) for 7 days. For some experiments, the cells were further purified at day 7 using CD11c^+-microbeads (Miltenyi Biotech., Auburn, Calif.), according to the manufacturer's instructions.
# as §1, §2
# [3] = peptides 200 μg/ml, HMGB1-Bx 50 μg/ml
# [4] = human DCs, peptides 200 μg/ml, 48 h
Sequence,"IL-6 secretion [1, 3]","IL-8 secretion [1, 3]","IL-10 secretion [1, 3]","IL-12 secretion [1, 3]","IL-18 secretion [1, 3]","TNFα secretion [1, 3]",cytokine secretion by human DCs ([1]; human DCs),"secretion of IL-6 by DCs [1, 4]",IL-1β secretion [2],IL-2 secretion [2],IL-5 secretion [2],IL-6 secretion [2],IL-8 secretion [2],IL-10 secretion [2],IL-12 secretion [2],IL-18 secretion [2],TNFα secretion [2],cytokine secretion by murine BM-DCs [2],secretion of IL-1β [2],secretion of IL-2 [2],also measured
CSEYRPKIKGEHPGLSIG [Hp-106] (Biotin-CSEYRPKIKGEHPGLSIG; listed as Homo sapiens),+,−,−,+,+,+,induced cytokine secretion by human DCs,induced secretion,+,+,+,−,+,−,+,+,+,induced cytokine secretion by murine BM-DCs; also recorded: high levels of cytokine secretion,enhanced secretion,enhanced secretion,"secretion of IL-12 (p70) ([1]; human DCs, FIG. 1C, peptides 200 μg/ml, 48 h): induced secretion; secretion of TNF-α ([1]; human DCs, FIG. 1D, peptides 200 μg/ml, 48 h): induced secretion; secretion of IL-18 ([1]; human DCs, FIG. 1E, peptides 200 μg/ml, HMGB1-Bx 50 μg/ml, 48 h): induced secretion; secretion of IL-8 ([1]; human DCs, FIG. 1F, peptides 200 μg/ml, HMGB1-Bx 50 μg/ml, 48 h): did not induce secretion; secretion of IL-8 [2]: enhanced secretion; secretion of IL-5 [2]: enhanced secretion; secretion of IL-18 [2]: enhanced secretion; secretion of TNF-α [2]: enhanced secretion; secretion of IL-12 (p70) [2]: enhanced secretion"
YAFFVQTCREEHIKKHPD [Hp-16],−,−,−,−,−,−,did not stimulate cytokine secretion and not,did not induce IL-6 secretion,+,+,+,−,−,−,+,+,−,enhanced cytokine secretion; also recorded: stimulated cytokine secretion,enhanced secretion,enhanced secretion,secretion of IL-8 [2]: only Hp-106 enhanced secretion; secretion of IL-5 [2]: enhanced secretion; secretion of IL-18 [2]: enhanced secretion; secretion of TNF-α [2]: only Hp-106 enhanced secretion; secretion of IL-12 (p70) [2]: enhanced secretion
